pIC50: −log10 of the molar value.
Tested on: 454973-116-R2-J3-PDC spheroids, percent test/control viability
Assay: Anticancer human tumor 454973-116-R2-J3-PDC patient-derived pancreatic carcinoma cell line growth inhibition [CLK]
Settings: spheroids with HUVEC and MSC; for pIC50: curve of first compound; for viability, T/C: stronger effect = lower value
Method in brief: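 Multi-cell-type spheroids combined patient-derived tumor cells with HUVEC endothelial cells and human mesenchymal stem cells. Paired agents were dosed in half-log steps down from about clinical Cmax, or from 10 microM where Cmax was unknown.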

[1] = second compound 0.0316 µM, first compound 0.0316 µM
[2] = second compound 0.0316 µM, first compound 0.1 µM
[3] = second compound 0.0316 µM, first compound 0.316 µM
[4] = second compound 0.0316 µM, first compound 1 µM
[5] = second compound 0.0316 µM, first compound 3.16 µM
[6] = second compound 0.0316 µM, first compound 10 µM
[7] = second compound 0.1 µM, first compound 0.0316 µM
[8] = second compound 0.1 µM, first compound 0.1 µM
[9] = second compound 0.1 µM, first compound 0.316 µM
[10] = second compound 0.1 µM, first compound 1 µM
[11] = second compound 0.1 µM, first compound 3.16 µM
[12] = second compound 0.1 µM, first compound 10 µM
[13] = second compound 0.316 µM, first compound 0.0316 µM
[14] = second compound 0.316 µM, first compound 0.1 µM
[15] = second compound 0.316 µM, first compound 0.316 µM
[16] = second compound 0.316 µM, first compound 1 µM
[17] = second compound 0.316 µM, first compound 3.16 µM
[18] = second compound 0.316 µM, first compound 10 µM
[19] = second compound 1 µM, first compound 0.0316 µM
[20] = second compound 1 µM, first compound 0.1 µM
[21] = second compound 1 µM, first compound 0.316 µM
[22] = second compound 1 µM, first compound 1 µM
[23] = second compound 1 µM, first compound 3.16 µM
[24] = second compound 1 µM, first compound 10 µM
[25] = second compound 3.16 µM, first compound 0.0316 µM
[26] = second compound 3.16 µM, first compound 0.1 µM
[27] = second compound 3.16 µM, first compound 0.316 µM
[28] = second compound 3.16 µM, first compound 1 µM
[29] = second compound 3.16 µM, first compound 3.16 µM
[30] = second compound 3.16 µM, first compound 10 µM
[31] = second compound 10 µM, first compound 0.0316 µM
[32] = second compound 10 µM, first compound 0.1 µM
[33] = second compound 10 µM, first compound 0.316 µM
[34] = second compound 10 µM, first compound 1 µM
[35] = second compound 10 µM, first compound 3.16 µM
[36] = second compound 10 µM, first compound 10 µM
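Also: spheroids exposed to compounds for 7 days before readout.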

With COc1ccc([C@@H](O)c2cc(-c3ncnc4cc(N5CCOCC5)ccc34)c(F)cc2Cl)nn1 + CNC(=O)c1ccc(Nc2nc(OC3CCCC3)c3c(-c4ccc5nc(C)oc5c4)c[nH]c3n2)c(OC)c1 the pIC50 (second compound 0.0316 µM) was < 5.00, the pIC50 (second compound 0.1 µM) was < 5.00 and the pIC50 (second compound 0.316 µM) was > 7.50. The pIC50 (second compound 1 µM) was > 7.50, the pIC50 (second compound 3.16 µM) was > 7.50 and the pIC50 (second compound 10 µM) was > 7.50. It also gave a viability, T/C [1] of 109%, a viability, T/C [2] of 95.5% and a viability, T/C [3] of 105%. For the same molecule, the viability, T/C [4] was 93%, the viability, T/C [5] was 80.3% and the viability, T/C [6] was 51.1%. For the same molecule, the viability, T/C [7] was 98.9%, the viability, T/C [8] was 110% and the viability, T/C [9] was 94.5%. The viability, T/C [10] was 97.2%, the viability, T/C [11] was 72.9% and the viability, T/C [12] was 54.7%. For the same molecule, the viability, T/C [13] was 42.2%, the viability, T/C [14] was 41.4% and the viability, T/C [15] was 49.1%. It also gave a viability, T/C [16] of 43.2%, a viability, T/C [17] of 45.5% and a viability, T/C [18] of 31.9%. The viability, T/C [19] was 27.8%, the viability, T/C [20] was 28% and the viability, T/C [21] was 29.1%. It also gave a viability, T/C [22] of 24.9%, a viability, T/C [23] of 25.9% and a viability, T/C [24] of 21.4%. For the same molecule, the viability, T/C [25] was 26.8%, the viability, T/C [26] was 30.3% and the viability, T/C [27] was 26.3%. For the same molecule, the viability, T/C [28] was 25.9%, the viability, T/C [29] was 23.6% and the viability, T/C [30] was 18.4%. The viability, T/C [31] was 28.2%, the viability, T/C [32] was 26.5% and the viability, T/C [33] was 23.1%. For the same molecule, the viability, T/C [34] was 24.4%, the viability, T/C [35] was 27.2% and the viability, T/C [36] was 17.7%.

With COc1cccc2c1C(=O)c1c(O)c3c(c(O)c1C2=O)CC(O)(C(=O)CO)CC3OC1CC(N)C(O)C(C)O1 (centres undefined) + CNC(=O)c1ccc(Nc2nc(OC3CCCC3)c3c(-c4ccc5nc(C)oc5c4)c[nH]c3n2)c(OC)c1 the pIC50 (second compound 0.0316 µM) was 7.50, the pIC50 (second compound 0.1 µM) was > 7.50 and the pIC50 (second compound 0.316 µM) was > 7.50. For the same molecule, the pIC50 (second compound 1 µM) was > 7.50, the pIC50 (second compound 3.16 µM) was > 7.50 and the pIC50 (second compound 10 µM) was > 7.50. It also gave a viability, T/C [1] of 51.4%, a viability, T/C [2] of 23% and a viability, T/C [3] of 21.7%. It also gave a viability, T/C [4] of 6.66%, a viability, T/C [5] of 1.89% and a viability, T/C [6] of 1.95%. It also gave a viability, T/C [7] of 46.4%, a viability, T/C [8] of 26.4% and a viability, T/C [9] of 19.6%. The viability, T/C [10] was 4.09%, the viability, T/C [11] was 2.62% and the viability, T/C [12] was 1.16%. The viability, T/C [13] was 27.8%, the viability, T/C [14] was 25% and the viability, T/C [15] was 14.5%. The viability, T/C [16] was 4.53%, the viability, T/C [17] was 2.76% and the viability, T/C [18] was 1.6%. For the same molecule, the viability, T/C [19] was 25.2%, the viability, T/C [20] was 18.5% and the viability, T/C [21] was 9.38%. The viability, T/C [22] was 1.17%, the viability, T/C [23] was 0.61% and the viability, T/C [24] was 0.81%. For the same molecule, the viability, T/C [25] was 26.2%, the viability, T/C [26] was 17.2% and the viability, T/C [27] was 4.87%. For the same molecule, the viability, T/C [28] was 0.94%, the viability, T/C [29] was 1.27% and the viability, T/C [30] was 0.57%. The viability, T/C [31] was 25.1%, the viability, T/C [32] was 20.3% and the viability, T/C [33] was 3.72%. It also gave a viability, T/C [34] of 0.69%, a viability, T/C [35] of 1.84% and a viability, T/C [36] of 0.97%.

— PubChem BioAssay AID2060618 (Molecular Pharmacology Branch, DTP, NCI, 2025)
